Measurements from US20250186541A1, “DLL3 TARGETING PEPTIDES AND CONSTRUCTS THEREOF” (MARIANA ONCOLOGY INC., priority 2023, published 2025).
Bridge positions count the residues as written; N and C are the ends. Square brackets hold non-standard residues; d marks the D form. Peptide text beside a SMILES is read from it. * marks the point of attachment. DOTA = O=C(O)CN1CCN(CC(=O)O)CCN(CC(=O)*)CCN(CC(=O)O)CC1; 1Nal = N[C@@H](Cc1cccc2ccccc12)C(=O)O; 2Nal = N[C@@H](Cc1ccc2ccccc2c1)C(=O)O; Phe(2-F) = N[C@@H](Cc1ccccc1F)C(=O)O; NMeF = CN[C@@H](Cc1ccccc1)C(=O)O; αMeF = C[C@](N)(Cc1ccccc1)C(=O)O; Chg = N[C@H](C(=O)O)C1CCCCC1; αMeP = C[C@@]1(C(=O)O)CCCN1; dNle = CCCC[C@@H](N)C(=O)O; NMeC = CN[C@@H](CS)C(=O)O; dNMeA = CN[C@H](C)C(=O)O

What follows are molecules tested against T1, human DLL3 (Homo sapiens, UniProt Q9NYJ7) (assay: Affinity determination by Surface Plasmon Resonance (SPR), Biacore, 1:1 binding model). Conditions: biotinylated human DLL3 on streptavidin chip, 25° C.; NB = nonbinding.
T1 construct: biotin (biotinylated)
T1 sequence (Q9NYJ7 27-618): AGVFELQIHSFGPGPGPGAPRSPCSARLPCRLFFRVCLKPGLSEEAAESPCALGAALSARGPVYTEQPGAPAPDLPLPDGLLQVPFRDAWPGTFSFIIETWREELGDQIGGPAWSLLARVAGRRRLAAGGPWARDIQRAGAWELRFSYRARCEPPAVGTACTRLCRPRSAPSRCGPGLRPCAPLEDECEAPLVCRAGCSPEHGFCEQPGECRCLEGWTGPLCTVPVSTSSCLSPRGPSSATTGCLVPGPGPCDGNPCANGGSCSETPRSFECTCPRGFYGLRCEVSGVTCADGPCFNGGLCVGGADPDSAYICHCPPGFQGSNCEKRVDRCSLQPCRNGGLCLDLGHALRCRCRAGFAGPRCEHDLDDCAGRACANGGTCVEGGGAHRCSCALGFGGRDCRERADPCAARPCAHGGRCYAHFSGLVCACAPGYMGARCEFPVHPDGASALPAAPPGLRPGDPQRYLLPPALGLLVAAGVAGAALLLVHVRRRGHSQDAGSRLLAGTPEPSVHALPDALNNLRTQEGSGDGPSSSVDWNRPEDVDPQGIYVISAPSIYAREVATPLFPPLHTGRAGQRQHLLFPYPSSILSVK
Outline: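 SPR with biotinylated human DLL3 captured on a streptavidin chip, with a reference surface subtracted. Samples were injected at several concentrations at 100 μL/min in phosphate buffer with 137 mM NaCl, 2.7 mM KCl, 0.05% P20 and 2% DMSO. Kinetic and affinity constants came from a 1:1 binding fit.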

| Kd [nM] | SMILES |
| --- | --- |
| > 100 | CC(=O)N[C@H](C(=O)N[C@@H](CO)C(=O)N[C@@H](CC(=O)O)C(=O)N[C@H]1CSSC[C@@H](C(=O)N2CCC[C@H]2C(=O)N[C@@H](CCCCNC(=O)CN2CCN(CC(=O)O)CCN(CC(=O)O)CCN(CC(=O)O)CC2)C(=O)N[C@@H](CC(=O)O)C(N)=O)NC(=O)[C@H](CC(N)=O)NC(=O)[C@H](Cc2c[nH]c3ccccc23)NC(=O)[C@H](CCC(N)=O)NC(=O)[C@H](CC(C)C)NC(=O)[C@H](Cc2c[nH]c3ccccc23)NC1=O)C1CCCCC1 [compound 102, Ac-(Chg)-S-D-C(3)-W-L-Q-W-N-C(3)-P-[L-Lys(DOTA)]-D-CONH2] (Ac-[Chg]SDCWLQWNCPK(DOTA)D-NH2; disulfide 4-10) |
| 0.35 | CCCC[C@@H](NC(C)=O)C(=O)N[C@@H](CO)C(=O)N[C@@H](CC(=O)O)C(=O)N[C@H]1CSSC[C@@H](C(=O)N2CCC[C@H]2C(=O)N[C@@H](Cc2ccccc2)C(=O)N[C@@H](CC(=O)O)C(=O)N[C@H](CCCCNC(=O)CN2CCN(CC(=O)O)CCN(CC(=O)O)CCN(CC(=O)O)CC2)C(N)=O)NC(=O)[C@H](CC(N)=O)NC(=O)[C@H](Cc2c[nH]c3ccccc23)NC(=O)[C@H](CCC(N)=O)NC(=O)[C@H](CC(C)C)NC(=O)[C@H](Cc2cccc3ccccc23)NC1=O [compound 103, Ac-(D-Nle)-S-D-C(3)-(1Nal)-L-Q-W-N-C(3)-P-F-D-D-Lys(DOTA)-CONH2] (Ac-[dNle]SDC[1Nal]LQWNCPFD[dK](DOTA)-NH2; disulfide 4-10) |
| 0.35 | CC(=O)N[C@H](C)C(=O)N[C@@H](CO)C(=O)N[C@@H](CC(=O)O)C(=O)N[C@H]1CSSC[C@@H](C(=O)N2CCC[C@H]2C(=O)N[C@@H](Cc2ccccc2)C(=O)N[C@@H](CC(=O)O)C(=O)N[C@H](CCCCNC(=O)CN2CCN(CC(=O)O)CCN(CC(=O)O)CCN(CC(=O)O)CC2)C(N)=O)NC(=O)[C@H](CC(N)=O)NC(=O)[C@H](Cc2c[nH]c3ccccc23)NC(=O)[C@H](CCC(N)=O)NC(=O)[C@H](CC(C)C)NC(=O)[C@H](Cc2cccc3ccccc23)NC1=O [compound 104, Ac-(D-Ala)-S-D-C(3)-(1Nal)-L-Q-W-N-C(3)-P-F-D-D-Lys(DOTA)-CONH2] (Ac-[dA]SDC[1Nal]LQWNCPFD[dK](DOTA)-NH2; disulfide 4-10) |
| > 30 | CC(=O)N[C@H](C(=O)N[C@@H](CO)C(=O)N[C@@H](CC(=O)O)C(=O)N[C@H]1CSSC[C@@H](C(=O)N(C)[C@H](C)C(=O)N(C)[C@@H](Cc2ccccc2)C(=O)N[C@@H](CC(=O)O)C(=O)N[C@H](CCCCNC(=O)CN2CCN(CC(=O)O)CCN(CC(=O)O)CCN(CC(=O)O)CC2)C(N)=O)NC(=O)[C@H](CC(N)=O)NC(=O)[C@H](Cc2c[nH]c3ccccc23)NC(=O)[C@H](CCC(N)=O)NC(=O)[C@H](CC(C)C)NC(=O)[C@H](Cc2cccc3ccccc23)NC1=O)C1CCCCC1 [compound 110, Ac-(Chg)-S-D-C(3)-(1Nal)-L-Q-W-N-C(3)-(NMeD-Ala)-(NMe-F)-D-D-Lys(DOTA)-CONH2] (Ac-[Chg]SDC[1Nal]LQWNC[dNMeA][NMeF]D[dK](DOTA)-NH2; disulfide 4-10) |

Continued, molecule first:

| SMILES | Kd [nM] |
| --- | --- |
| CC(=O)N[C@H](C(=O)N[C@@H](CO)C(=O)N[C@@H](CC(=O)O)C(=O)N[C@H]1CSSC[C@@H](C(=O)N2CCC[C@H]2C(=O)N[C@@H](Cc2ccccc2)C(=O)N[C@@H](CC(=O)O)C(N)=O)NC(=O)[C@H](CC(N)=O)NC(=O)[C@H](CCCCNC(=O)CN2CCN(CC(=O)O)CCN(CC(=O)O)CCN(CC(=O)O)CC2)NC(=O)[C@H](CCC(N)=O)NC(=O)[C@H](CC(C)C)NC(=O)[C@H](Cc2c[nH]c3ccccc23)NC1=O)C1CCCCC1 [compound 99, Ac-(Chg)-S-D-C(3)-W-L-Q-[L-Lys(DOTA)]-N-C(3)-P-F-D-CONH2] (Ac-[Chg]SDCWLQK(DOTA)NCPFD-NH2; disulfide 4-10) | > 100 |
| CC(=O)N[C@H](C(=O)N[C@@H](CO)C(=O)N[C@@H](CC(=O)O)C(=O)N[C@H]1CSSC[C@@H](C(=O)N2CCC[C@H]2C(=O)N[C@@H](Cc2ccccc2)C(=O)N[C@@H](CC(=O)O)C(N)=O)NC(=O)[C@H](CCCCNC(=O)CN2CCN(CC(=O)O)CCN(CC(=O)O)CCN(CC(=O)O)CC2)NC(=O)[C@H](Cc2c[nH]c3ccccc23)NC(=O)[C@H](CCC(N)=O)NC(=O)[C@H](CC(C)C)NC(=O)[C@H](Cc2c[nH]c3ccccc23)NC1=O)C1CCCCC1 [compound 100, Ac-(Chg)-S-D-C(3)-W-L-Q-W-[L-Lys(DOTA)]-C(3)-P-F-D-CONH2] (Ac-[Chg]SDCWLQWK(DOTA)CPFD-NH2; disulfide 4-10) | > 300 |
| CC(=O)N[C@H](C(=O)N[C@@H](CO)C(=O)N[C@@H](CC(=O)O)C(=O)N[C@H]1CSSC[C@@H](C(=O)N[C@@H](CCCCNC(=O)CN2CCN(CC(=O)O)CCN(CC(=O)O)CCN(CC(=O)O)CC2)C(=O)N[C@@H](Cc2ccccc2)C(=O)N[C@@H](CC(=O)O)C(N)=O)NC(=O)[C@H](CC(N)=O)NC(=O)[C@H](Cc2c[nH]c3ccccc23)NC(=O)[C@H](CCC(N)=O)NC(=O)[C@H](CC(C)C)NC(=O)[C@H](Cc2c[nH]c3ccccc23)NC1=O)C1CCCCC1 [compound 101, Ac-(Chg)-S-D-C(3)-W-L-Q-W-N-C(3)-[L-Lys(DOTA)]-F-D-CONH2] (Ac-[Chg]SDCWLQWNCK(DOTA)FD-NH2; disulfide 4-10) | > 300 |
| CC(=O)N[C@H](C(=O)N[C@@H](CO)C(=O)N[C@@H](CC(=O)O)C(=O)N[C@H]1CSSC[C@@H](C(=O)N(C)[C@H](C)C(=O)N[C@@](C)(Cc2ccccc2)C(=O)N[C@@H](CC(=O)O)C(=O)N[C@H](CCCCNC(=O)CN2CCN(CC(=O)O)CCN(CC(=O)O)CCN(CC(=O)O)CC2)C(N)=O)NC(=O)[C@H](CC(N)=O)NC(=O)[C@H](Cc2c[nH]c3ccccc23)NC(=O)[C@H](CCC(N)=O)NC(=O)[C@H](CC(C)C)NC(=O)[C@H](Cc2cccc3ccccc23)NC1=O)C1CCCCC1 [compound 109, Ac-(Chg)-S-D-C(3)-(1Nal)-L-Q-W-N-C(3)-(NMeD-Ala)-(aMe-F)-D-D-Lys(DOTA)-CONH2] (Ac-[Chg]SDC[1Nal]LQWNC[dNMeA][αMeF]D[dK](DOTA)-NH2; disulfide 4-10) | 0.96 |
| CC(=O)N[C@H](C(=O)N[C@@H](CO)C(=O)N[C@@H](CC(=O)O)C(=O)N[C@H]1CSSC[C@@H](C(=O)N2CCC[C@H]2C(=O)N[C@@H](Cc2ccccc2)C(=O)N[C@@H](CC(=O)O)C(=O)N[C@H](CCCCNC(=O)CN2CCN(CC(=O)O)CCN(CC(=O)O)CCN(CC(=O)O)CC2)C(N)=O)NC(=O)[C@H](CC(N)=O)NC(=O)[C@H](Cc2ccc3ccccc3c2)NC(=O)[C@H](CCC(N)=O)NC(=O)[C@H](CC(C)C)NC(=O)[C@H](Cc2cccc3ccccc23)NC1=O)C1CCCCC1 [compound 114, Ac-(Chg)-S-D-C(3)-(1Nal)-L-Q-(2Nal)-N-C(3)-P-F-D-D-Lys(DOTA)-CONH2] (Ac-[Chg]SDC[1Nal]LQ[2Nal]NCPFD[dK](DOTA)-NH2; disulfide 4-10) | 0.38 |
| CC(=O)N[C@H](C(=O)N[C@@H](CO)C(=O)N[C@@H](CC(=O)O)C(=O)N[C@H]1CSSC[C@@H](C(=O)N2CCC[C@H]2C(=O)N[C@@H](Cc2ccccc2)C(=O)N[C@@H](CC(=O)O)C(=O)N[C@H](CCCCNC(=O)CN2CCN(CC(=O)O)CCN(CC(=O)O)CCN(CC(=O)O)CC2)C(N)=O)N(C)C(=O)[C@H](CC(N)=O)NC(=O)[C@H](Cc2c[nH]c3ccccc23)NC(=O)[C@H](CCC(N)=O)NC(=O)[C@H](CC(C)C)NC(=O)[C@H](Cc2cccc3ccccc23)NC1=O)C1CCCCC1 [compound 115, Ac-(Chg)-S-D-C(3)-(1Nal)-L-Q-W-N-(NMe-Cys)-P-F-D-D-Lys(DOTA)-CONH2] (Ac-[Chg]SDC[1Nal]LQWN[NMeC]PFD[dK](DOTA)-NH2; disulfide 4-10) | > 100 |
| CC(=O)N[C@H](C(=O)N[C@@H](CO)C(=O)N[C@@H](CC(=O)O)C(=O)N[C@H]1CSSC[C@@H](C(=O)N2CCC[C@@H]2C(=O)N[C@@H](Cc2ccccc2)C(=O)N[C@@H](CC(=O)O)C(=O)N[C@H](CCCCNC(=O)CN2CCN(CC(=O)O)CCN(CC(=O)O)CCN(CC(=O)O)CC2)C(N)=O)NC(=O)[C@H](CC(N)=O)NC(=O)[C@H](Cc2c[nH]c3ccccc23)NC(=O)[C@H](CCC(N)=O)NC(=O)[C@H](CC(C)C)NC(=O)[C@H](Cc2cccc3ccccc23)NC1=O)C1CCCCC1 [compound 116, Ac-(Chg)-S-D-C(3)-(1Nal)-L-Q-W-N-C(3)-(D-Pro)-F-D-D-Lys(DOTA)-CONH2] (Ac-[Chg]SDC[1Nal]LQWNC[dP]FD[dK](DOTA)-NH2; disulfide 4-10) | > 30 |
| CC(=O)N[C@H](C(=O)N[C@@H](CO)C(=O)N[C@@H](CC(=O)O)C(=O)N[C@H]1CSSC[C@@H](C(=O)N2CCC[C@@]2(C)C(=O)N[C@@H](Cc2ccccc2F)C(=O)N[C@@H](CC(=O)O)C(=O)N[C@H](CCCCNC(=O)CN2CCN(CC(=O)O)CCN(CC(=O)O)CCN(CC(=O)O)CC2)C(N)=O)NC(=O)[C@H](CC(N)=O)NC(=O)[C@H](Cc2c[nH]c3ccccc23)NC(=O)[C@H](CCC(N)=O)NC(=O)[C@H](CC(C)C)NC(=O)[C@H](Cc2cccc3ccccc23)NC1=O)C1CCCCC1 [compound 117, Ac-(Chg)-S-D-C(3)-(1Nal)-L-Q-W-N-C(3)-(aMe-P)-(2F-Phe)-D-D-Lys(DOTA)-CONH2] (Ac-[Chg]SDC[1Nal]LQWNC[αMeP][Phe(2-F)]D[dK](DOTA)-NH2; disulfide 4-10) | 0.66 |
